The source made the active and inactive calls. The rule behind the calls is not given here.

Test [1] has as its target 5-hydroxytryptamine receptor 7 (Rattus norvegicus) (UniProt P32305). As to the kind of experiment: Agonistic activity against rat 5-HT7 adenyl cyclase expressed by HEK293 cells. The class given is functional, cell-based.
The target in test [2] is 5-hydroxytryptamine receptor 7 (Rattus norvegicus, UniProt P32305). The test can be described thus: Binding affinity at rat 5-hydroxytryptamine 7 receptor.
The target of test [3] is 5-hydroxytryptamine receptor 7 (Rattus norvegicus) (UniProt P32305). As to the kind of experiment: Agonistic activity against rat 5-HT7 adenyl cyclase expressed in HEK293 cells; Active. The class given is functional, cell-based.
Test [4] has the same target. The settings on record: HEK293.

Sequence of 5-hydroxytryptamine receptor 7 (Rattus norvegicus) (P32305 whole entry): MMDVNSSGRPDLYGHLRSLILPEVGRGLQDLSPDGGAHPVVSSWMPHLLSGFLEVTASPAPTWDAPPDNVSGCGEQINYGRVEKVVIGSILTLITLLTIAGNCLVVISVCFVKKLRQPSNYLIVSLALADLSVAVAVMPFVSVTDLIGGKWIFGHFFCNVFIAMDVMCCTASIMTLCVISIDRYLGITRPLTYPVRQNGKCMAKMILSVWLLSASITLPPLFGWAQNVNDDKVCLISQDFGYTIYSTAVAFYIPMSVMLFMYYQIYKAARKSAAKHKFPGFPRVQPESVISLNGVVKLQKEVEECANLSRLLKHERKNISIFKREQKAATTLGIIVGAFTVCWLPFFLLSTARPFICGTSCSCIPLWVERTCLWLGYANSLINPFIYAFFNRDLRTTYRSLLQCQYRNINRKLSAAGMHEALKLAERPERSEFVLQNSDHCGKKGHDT
Sequence of 5-hydroxytryptamine receptor 7 (P32305 whole entry): as above

A word on the Ki: it is the equilibrium dissociation constant of an inhibitor or competing ligand from its target. Low values mean a stronger hold on the target, high ones a looser hold on the target. Regarding `COc1ccc2[nH]cc(CCN3CCCC3)c2c1`, the Increase in test [1] was 39%. The molecule further had a Ki in test [2] of 631 nM.

As for `COc1ccc2cccc(N3CCNCC3)c2c1`, the Increase in test [1] was 25%. Moreover, in test [2], the Ki is 20.4 nM.

For `COc1ccccc1N1CCNCC1`, in test [3], the Increase entry was “Active”.

On to `CN(C)[C@H]1CCc2c(cccc2-c2cccc3ccccc23)C1`, for which the Increase result in test [3] is “Active”. Further, the inhibition constant Ki in test [2] was 0.251 nM.

`CCN(CC)[C@@H]1CCc2cccc(OC)c2C1` had an Increase in test [1] of 73%. Moreover, affinity in test [2] was put at a Ki of 87.1 nM.

Take `Cc1[nH]c(C)c(-c2cccc3c2CC[C@H](N(C)C)C3)c1C`: the Increase entry in test [3] is “Active”. Besides, the Ki in test [2] is 0.832 nM.

Turning to `c1ccc2c(N3CCNCC3)cccc2c1`, in test [3], the Increase entry was “Active”.

Regarding `CCCN(CCC)[C@@H]1CCc2cccc(O)c2C1`, in test [3], the Increase result was “Active”. In test [2], this molecule had a Ki of 45.7 nM.

Take `COc1ccc2[nH]c(C)c(CCN(C)C)c2c1`: the Increase in test [1] amounted to 17%. Also, the Ki in test [2] is 1120 nM.

The molecule `CCCN(CCC)[C@H]1CCc2cccc(OC)c2C1` displayed an Increase in test [1] of 99%. The affinity in test [2], expressed as Ki, was 339 nM.

Regarding `COc1cccc2c1C[C@H](N)CC2`, the Increase in test [1] worked out at 73%. Moreover, in test [2], affinity was put at a Ki of 123 nM.

As for `COc1ccc2[nH]cc(CCN(C)C)c2c1` [MEBUFOTENIN], the Increase in test [1] worked out at 92%. This molecule gave a Ki in test [2] of 39.8 nM.

On to `COc1ccc2[nH]cc(CCN)c2c1`, for which the Increase entry in test [3] was “Active”.

For `CCCN(CCC)[C@@H]1CCc2cccc(OC)c2C1`, the Increase in test [1] turned out to be 92%. The inhibitory constant (Ki) in test [2] is 33.9 nM.

`COc1ccc2c(c1)CC[C@@H](N)C2` had an Increase in test [1] of 58%. In test [2], this molecule showed a Ki of 1580 nM.

Molecule `NCCc1c[nH]c2ccc(C(N)=O)cc12` gave an Increase in test [1] of 100%.

Consider `CN(C)CCc1c[nH]c2ccc(O)cc12` [BUFOTENINE], for which, in test [3], the Increase entry is “Active”. The molecule also gave a Ki in test [2] of 7.94 nM.

Turning to `NCCc1c[nH]c2ccc(O)cc12`, the Increase entry in test [4] is “Active”.

For `CCN(CC)C(=O)[C@@H]1C=C2c3cccc4[nH]cc(c34)C[C@H]2N(C)C1`, the Increase result in test [3] is “Active”.

`Cc1c(NC2=NCCN2)cccc1-c1ccccc1`: the Increase result in test [3] is “Active”.

These data come from ChEMBL document CHEMBL1144906, “Characterization of the 5-HT(7) receptor. Determination of the pharmacophore for 5-HT(7) receptor agonism and CoMFA-based modeling of the agonist binding site” (J Med Chem, 2003).
